Reference: ChEMBL document CHEMBL6078713, “Synthesis and mechanistic studies of 4-aminoquinoline-Isatin molecular hybrids and Schiff's bases as promising antimicrobial agents” (Eur J Med Chem, 2025)
Values after ≈ are worked out from the molar mass of the structure shown. Active and inactive are the calls of the source. The rule behind the calls is not given here.

Key:
Pseudomonas aeruginosa = assay: Antibacterial activity against Pseudomonas aeruginosa MTCC 2453 assessed as diameter of zone of inhibition at 500 ug/ml by agar disk diffusion method; type: functional; conditions: read-out: DIZ
Enterococcus faecalis [1] = assay: Antibacterial activity against Enterococcus faecalis MTCC 439 assessed as diameter of zone of inhibition at 500 ug/ml by agar disk diffusion method; type: functional; conditions: read-out: DIZ
Bacillus subtilis [2] = assay: microbe, parasite or virus in culture; conditions: MTCC 736
Description: Synergistic antibacterial activity against Bacillus subtilis MTCC 736 assessed as inhibition of bacterial growth incubated overnight in presence of SB9 by serial dilution based spectrophotometer

Bacillus subtilis [3] = assay: microbe, parasite or virus in culture; conditions: MTCC 736; remark: listed apart in the source
Description: Synergistic antibacterial activity against Bacillus subtilis MTCC 736 assessed as inhibition of bacterial growth incubated overnight in presence of LT-SB7 by serial dilution based spectrophotometer

Enterococcus faecalis [4] = assay: microbe, parasite or virus in culture; conditions: MTCC 439
Description: Synergistic antibacterial activity against Enterococcus faecalis MTCC 439 assessed as inhibition of bacterial growth incubated overnight in presence of LT-SB5 by serial dilution based spectrophotometer

Salmonella typhi [5] = assay: Antibacterial activity against Salmonella typhi assessed as inhibition of bacterial growth incubated overnight by serial dilution based spectrophotometer; type: functional, Salmonella enterica subsp. enterica serovar Typhi; conditions: Salmonella enterica
Salmonella typhi [6] = assay: Synergistic antibacterial activity against Salmonella typhi assessed as inhibition of bacterial growth incubated overnight in presence of LT-SB7 by serial dilution based spectrophotometer; conditions: Salmonella enterica
Bacillus subtilis [7] = assay: microbe, parasite or virus in culture; conditions: MTCC 736; remark: listed apart in the source
Description: Synergistic antibacterial activity against Bacillus subtilis MTCC 736 assessed as inhibition of bacterial growth incubated overnight in presence of LT-SB23 by serial dilution based spectrophotometer

Salmonella typhi [8] = assay: Synergistic antibacterial activity against Salmonella typhi assessed as inhibition of bacterial growth incubated overnight in presence of LT-SB5 by serial dilution based spectrophotometer; conditions: Salmonella enterica
Salmonella typhi [9] = assay: Synergistic antibacterial activity against Salmonella typhi assessed as inhibition of bacterial growth incubated overnight in presence of LT-SB23 by serial dilution based spectrophotometer; conditions: Salmonella enterica
Bacillus subtilis [10] = assay: Antibacterial activity against Bacillus subtilis MTCC 736 assessed as inhibition of bacterial growth incubated overnight by serial dilution based spectrophotometer; type: functional
Enterococcus faecalis [11] = assay: Antibacterial activity against Enterococcus faecalis MTCC 439 assessed as inhibition of bacterial growth incubated overnight by serial dilution based spectrophotometer; type: functional
Enterococcus faecalis [12] = assay: microbe, parasite or virus in culture; conditions: MTCC 439; remark: listed apart in the source
Description: Synergistic antibacterial activity against Enterococcus faecalis MTCC 439 assessed as inhibition of bacterial growth incubated overnight in presence of LT-SB7 by serial dilution based spectrophotometer

Bacillus subtilis [13] = assay: microbe, parasite or virus in culture; conditions: MTCC 736; remark: listed apart in the source
Description: Synergistic antibacterial activity against Bacillus subtilis MTCC 736 assessed as inhibition of bacterial growth incubated overnight in presence of LT-SB5 by serial dilution based spectrophotometer

Enterococcus faecalis [14] = assay: microbe, parasite or virus in culture; conditions: MTCC 439; remark: listed apart in the source
Description: Synergistic antibacterial activity against Enterococcus faecalis MTCC 439 assessed as inhibition of bacterial growth incubated overnight in presence of LT-SB23 by serial dilution based spectrophotometer

Staphylococcus aureus [15] = assay: Bacteriostatic activity against Staphylococcus aureus MTCC 902 assessed as reduction in bacterial growth measured upto 24 hrs by absorbance based assay; type: functional, organism-based
Escherichia coli = assay: microbe, parasite or virus in culture; conditions: MTCC 443
Description: Synergistic antibacterial activity against Escherichia coli MTCC 443 assessed as inhibition of bacterial growth incubated overnight in presence of SB5 by serial dilution based spectrophotometer

Bacillus subtilis [16] = assay: Antibacterial activity against Bacillus subtilis MTCC 736 assessed as diameter of zone of inhibition at 500 ug/ml by agar disk diffusion method; type: functional; conditions: read-out: DIZ
Salmonella typhi [17] = assay: Antibacterial activity against Salmonella typhi assessed as diameter of zone of inhibition at 500 ug/ml by agar disk diffusion method; type: functional, Salmonella enterica subsp. enterica serovar Typhi; conditions: Salmonella enterica, read-out: DIZ
Staphylococcus aureus [18] = assay: Antibacterial activity against Staphylococcus aureus MTCC 902 assessed as diameter of zone of inhibition at 500 ug/ml by agar disk diffusion method; type: functional; conditions: read-out: DIZ
Enterococcus faecalis [19] = assay: microbe, parasite or virus in culture; conditions: MTCC 439; remark: listed apart in the source
Description: Synergistic antibacterial activity against Enterococcus faecalis MTCC 439 assessed as inhibition of bacterial growth incubated overnight in presence of SB5 by serial dilution based spectrophotometer

SMILES: O=C(O)c1cn(C2CC2)c2cc(N3CCNCC3)c(F)cc2c1=O [CIPROFLOXACIN]
- zone of inhibition at 500 µg/mL (Pseudomonas aeruginosa): 24 mm
- zone of inhibition at 500 µg/mL (Enterococcus faecalis [1]): 18 mm
- MIC (Bacillus subtilis [2]): 0.5 µg/mL (≈ 1.51 µM)
- MIC (Bacillus subtilis [3]): 0.25 µg/mL (≈ 0.754 µM)
- MIC (Enterococcus faecalis [4]): 0.5 µg/mL (≈ 1.51 µM)
- MIC (Salmonella typhi [5]): 0.5 µg/mL (≈ 1.51 µM)
- MIC (Salmonella typhi [6]): 0.031 µg/mL
- MIC (Bacillus subtilis [7]): 1 µg/mL (≈ 3.02 µM)
- MIC (Salmonella typhi [8]): 0.031 µg/mL
- MIC (Salmonella typhi [9]): 0.031 µg/mL
- MIC (Bacillus subtilis [10]): 1 µg/mL (≈ 3.02 µM)
- MIC (Enterococcus faecalis [11]): 0.5 µg/mL (≈ 1.51 µM)
- MIC (Enterococcus faecalis [12]): 0.125 µg/mL (≈ 0.377 µM)
- MIC (Bacillus subtilis [13]): 1 µg/mL (≈ 3.02 µM)
- MIC (Enterococcus faecalis [14]): 0.125 µg/mL (≈ 0.377 µM)
- Activity (Staphylococcus aureus [15]): Active
- MIC (Escherichia coli): 0.062 µg/mL (≈ 0.187 µM)
- zone of inhibition at 500 µg/mL (Bacillus subtilis [16]): 22 mm
- zone of inhibition at 500 µg/mL (Salmonella typhi [17]): 18 mm
- zone of inhibition at 500 µg/mL (Staphylococcus aureus [18]): 19 mm
- MIC (Enterococcus faecalis [19]): 0.5 µg/mL (≈ 1.51 µM)
